How the values were obtained:
Format in all cases: physicochemical
[1] = Spectral Properties of 9 in CH2Cl2, Table 3; set-up: emax: unit not given beside the values; conditions: for Ff: Rhodamine 101 in EtOH as the standard
[2] = Spectral properties (absorbance, fluorescence, quantum yield) of sulfonated BODIPY dyes 6, Table 1; conditions: for F: Fluorescein in 0.1M NaOH as standard
Excerpt: A fluorophore, according to some embodiments of the disclosure, may have a high extinction coefficient and/or a sharp, intense fluorescence emission (e.g., rivaling that of the BODIPY dyes). A fluorophore may also have single molecule detection capacity.

[3] = Fluorescence properties of water-soluble Nile Blue derivatives in aqueous media; conditions: for quantum yields versus I and J: pH 7.4 in aqueous media; for fwmh less than reported water-soluble Nile Blue derivatives: phosphate buffer pH 7.4, versus I and J
Excerpt: A dye may include, in some embodiments, one or more of Nile Blue derivatives 17-20 (FIG. 11).

[4] = Water solubility of through-bond energy transfer cassettes
[5] = 0.1M lithium phosphate buffer (pH = 7.4)

| Compound | If [1] | Imax [1] | emax [1] | fwhm (full width at half-maximum height) [1] | Ff [1] | Imax abs ([2]; solvent MeOH) | Imax emiss ([2]; solvent MeOH) | e ([2]; solvent MeOH) | fwhm ([2]; solvent MeOH) | F ([2]; solvent MeOH) | further results |
| --- | --- | --- | --- | --- | --- | --- | --- | --- | --- | --- | --- |
| CC1=[N+]2C(=Cc3c(C)cc(C)n3[B-]2(F)F)C(=O)N1C [6a] |  |  |  |  |  | 477 nm | 485 nm | 57286 M⁻¹ cm⁻¹ | 19 nm | 0.89 ± 0.01 |  |
| Cc1cc(C)n2c1C=C1C(=O)N(C)C(c3ccccc3)=[N+]1[B-]2(F)F [6b] |  |  |  |  |  | 490 nm | 521 nm | 58684 M⁻¹ cm⁻¹ | 46 nm | 0.87 ± 0.01 |  |
| Cc1cc(C)n2c1C=C1C(=O)N(C)C(c3ccc(I)cc3)=[N+]1[B-]2(F)F [6c] |  |  |  |  |  | 492 nm | 532 nm | 57303 M⁻¹ cm⁻¹ | 54 nm | 0.86 ± 0.02 |  |
| COc1ccc(C2=[N+]3C(=Cc4c(C)cc(C)n4[B-]3(F)F)C(=O)N2C)cc1 [6d] |  |  |  |  |  | 493 nm | 521 nm | 51269 M⁻¹ cm⁻¹ | 38 nm | 0.85 ± 0.03 |  |
| Cc1cc(C)n2c1C=C1C(=O)NC(c3ccccc3)=[N+]1[B-]2(F)F [6e] |  |  |  |  |  | 495 nm | 531 nm | 37867 M⁻¹ cm⁻¹ | 48 nm | 0.80 ± 0.01 |  |
| Cc1cc(C)n2c1C=C1C(=O)N(C)C(c3ccc([N+](=O)[O-])cc3)=[N+]1[B-]2(F)F [6f] |  |  |  |  |  | 492 nm | 598 nm | 44003 M⁻¹ cm⁻¹ | 120 nm | 0.0004 | Imax abs ([2]; solvent Hexanes): 498 nm; Imax emiss ([2]; solvent Hexanes): 587 nm; fwhm ([2]; solvent Hexanes): 53 nm; F ([2]; solvent Hexanes): 0.53 ± 0.01 |
| Cc1c(S(=O)(=O)[O-])c(C)n2c1C=C1C(=O)N(C)C(c3ccc(I)cc3)=[N+]1[B-]2(F)F.[Na+] [6g] |  |  |  |  |  | 488 nm | 531 nm | 48132 M⁻¹ cm⁻¹ | 53 nm | 0.88 ± 0.01 | Imax abs [2, 5]: 481 nm; Imax emiss [2, 5]: 518 nm; e [2, 5]: 46461 M⁻¹ cm⁻¹; fwhm [2, 5]: 50 nm; F [2, 5]: 0.87 ± 0.01 |
| Cc1c(S(=O)(=O)O)c(C)n2c1C=C1C(=O)N(C)C(c3ccc(C#CCCCC(=O)O)cc3)=[N+]1[B-]2(F)F [6h] |  |  |  |  |  | 488 nm | 538 nm | 35024 M⁻¹ cm⁻¹ | 58 nm | 0.84 ± 0.01 | Imax abs [2, 5]: 482 nm; Imax emiss [2, 5]: 526 nm; e [2, 5]: 34766 M⁻¹ cm⁻¹; fwhm [2, 5]: 56 nm; F [2, 5]: 0.82 ± 0.01 |
| CCN(CCCS(=O)(=O)O)c1ccc2nc3c4cc(O)ccc4c(=NCCCS(=O)(=O)O)cc-3oc2c1.Cl [compound 17] |  |  |  |  |  |  |  |  |  |  | quantum yields versus I and J [3]: improved quantum yields; fwmh less than reported water-soluble Nile Blue derivatives [3]: 20 nm |
| Cl.O=C(O)CCN(CCC(=O)O)c1ccc2nc3c4cc(O)ccc4c(=NCCCS(=O)(=O)O)cc-3oc2c1 [compound 18] |  |  |  |  |  |  |  |  |  |  | quantum yields versus I and J [3]: improved quantum yields; fwmh less than reported water-soluble Nile Blue derivatives [3]: 20 nm |
| COc1ccccc1C1=[N+]2C(=C(c3ccc(-c4cn(-c5ccc(C6=C7C(C)=C(S(=O)(=O)[O-])C(C)=[N+]7[B-](F)(F)n7c(C)c(S(=O)(=O)[O-])c(C)c76)cc5)nn4)cc3OCC(=O)O)c3ccc(-c4ccccc4OC)n3[B-]2(F)F)C=C1.[Na+].[Na+] [compound 22] |  |  |  |  |  |  |  |  |  |  | water solubility [4]: water soluble |

Second part, led by results:

| If [1] | Imax [1] | emax [1] | fwhm (full width at half-maximum height) [1] | Ff [1] | Imax abs ([2]; solvent MeOH) | Imax emiss ([2]; solvent MeOH) | e ([2]; solvent MeOH) | fwhm ([2]; solvent MeOH) | F ([2]; solvent MeOH) | Compound | further results |
| --- | --- | --- | --- | --- | --- | --- | --- | --- | --- | --- | --- |
| 537 nm | 456 nm | 52423 | 52 nm | 0.85 ± 0.01 |  |  |  |  |  | CCC(C)Nc1c2ccc(=[N+]3CCCCC3)cc-2oc2cc(N3CCCCC3)ccc12.O=S(=O)([O-])C(F)(F)F (racemic) [9c] |  |
| 562 nm | 491 nm | 60409 | 55 nm | 0.14 ± 0.01 |  |  |  |  |  | O=S(=O)([O-])C(F)(F)F.c1cc2c(N3CCCCC3)c3ccc(=[N+]4CCCCC4)cc-3oc2cc1N1CCCCC1 [9a] |  |
| 558 nm | 499 nm | 50978 | 41 nm | 0.11 ± 0.02 |  |  |  |  |  | CCN(CC)c1c2ccc(=[N+]3CCCCC3)cc-2oc2cc(N3CCCCC3)ccc12.O=S(=O)([O-])C(F)(F)F [9b] |  |
| 544 nm | 462 nm | 62044 | 52 nm | 0.90 ± 0.02 |  |  |  |  |  | CC(Nc1c2ccc(=[N+]3CCCCC3)cc-2oc2cc(N3CCCCC3)ccc12)C(=O)OC(C)(C)C.O=S(=O)([O-])C(F)(F)F (centres unmarked) [9d] |  |
| 619 nm | 598 nm | 82617 | 38 nm | 0.79 ± 0.02 |  |  |  |  |  | O=S(=O)([O-])C(F)(F)F.c1ccc(CSc2c3ccc(=[N+]4CCCCC4)cc-3oc3cc(N4CCCCC4)ccc23)cc1 [9e] |  |
| 552 nm | 482 nm | 54908 | 47 nm | 0.02 ± 0.001 |  |  |  |  |  | COC(=O)C1CCN(c2ccc3c(N4CCCCC4)c4ccc(=[N+]5CCC(C(=O)OC)CC5)cc-4oc3c2)CC1.O=S(=O)([O-])C(F)(F)F (centres unmarked) [9f] |  |
